Patent US5281613A, “Heterocyclic compounds” (Imperial Chemical Industries PLC, priority 1991, dated 1994)

Key:
[1] = molecular target: T1, AII receptors (guinea pig adrenal gland cell surface membrane fraction) (Cavia porcellus, UniProt Q9WV26); test: Test A: in vitro displacement of radiolabelled AII binding to guinea pig adrenal gland cell surface membranes; details: read-out: IC50 (concentration for 50% displacement of radiolabelled AII binding)
T1 construct: from tissue; host or cells: guinea pig adrenal gland, cell surface membrane fraction
T1 sequence (Q9WV26 1-359): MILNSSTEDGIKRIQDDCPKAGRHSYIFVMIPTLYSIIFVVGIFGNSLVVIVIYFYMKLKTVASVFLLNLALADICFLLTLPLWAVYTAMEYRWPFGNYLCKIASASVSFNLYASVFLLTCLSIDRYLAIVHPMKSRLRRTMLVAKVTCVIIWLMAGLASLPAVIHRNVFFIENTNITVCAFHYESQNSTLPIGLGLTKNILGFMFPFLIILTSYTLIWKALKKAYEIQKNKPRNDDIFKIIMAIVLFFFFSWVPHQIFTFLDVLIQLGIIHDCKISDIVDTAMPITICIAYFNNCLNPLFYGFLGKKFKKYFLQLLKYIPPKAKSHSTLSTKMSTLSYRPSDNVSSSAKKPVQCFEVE
Description: The antagonism of one or more of the physiological actions of AII and, in particular, the antagonism of the interaction of AII with the receptors which mediate its effects on a target tissue, may be assessed using one or more of the following, routine laboratory procedures:
This in vitro procedure involves the incubation of the test compound initially at a concentration of 100 micromolar (or less) in a buffered mixture containing fixed concentrations of radiolabelled AII and a cell surface membrane fraction prepared from a suitable angiotensin target tissue. In this test, the source of cell surface membranes is the guinea pig adrenal gland which is well known to respond to AII. Interaction of the radiolabelled AII with its receptors (assessed as radiolabel bound to the particlate membrane fraction following removal of unbound radiolabel by a rapid filtration procedure such as is standard in such studies) is antagonized by compounds which also bind to the membrane receptor sites and the degree of antagonism (observed in the test as displacement of membrane-bound radioactivity) is determined readily by comparing the receptor-bound radioactivity in the presence of the test compound at the specified test concentration with a control value determined in the absence of the test compound. […]

[2] = tested on: angiotensin II-induced pressor responses; test: Test C: antagonism of angiotensin II-induced pressor responses in rats; assay type: in vivo; details: iv, rat, i.v. administration
From the text: The antagonism of one or more of the physiological actions of AII and, in particular, the antagonism of the interaction of AII with the receptors which mediate its effects on a target tissue, may be assessed using one or more of the following, routine laboratory procedures: Test C This in vivo test involves using terminally-anaesthetised or conscious rats in which an arterial catheter has been implanted under anaesthesia for the measurement of changes in blood pressure. The AII antagonistic effects of the test compound following oral or parenteral administration, are assessed against angiotensin II-induced pressor responses. To ensure that the effect is specific, the effect of the test compound on vasopressin-induced pressor responses may also be determined in the same preparation.

Structure (SMILES): CCc1cc(OCc2ccc3oc(-c4ccccc4-c4nnn[nH]4)c(Br)c3c2)c2c(n1)CCCC2.Cl [Example 8, 4-[(3-bromo-2-(2-(1H-tetrazol-5-yl)phenyl)benzofuran-5-yl)methoxy]-2-ethyl-5,6,7,8-tetrahydroquinoline hydrochloride]
- IC50 [1]: 30 nM
- ED50 [2]: 8.2 mg/kg
